Earlier results, collected in publication PMC12505664, “Enflicoxib for the long-term management of canine osteoarthritis—External validation of a population pharmacokinetic model in dogs with osteoarthritis” (Frontiers in Veterinary Science, 2025).
Read-outs that look alike come from different tables or passages of the source.

Tests used:
[1] = design: method as in PMID 34854245; conditions: popPK model, cited from earlier work
Beagle dogs = system: Beagle dogs; design: method as in PMID 34082759; conditions: cited from earlier work
canine osteoarthritis = system: canine osteoarthritis; design: method as in Salichs et al., Vet Rec. 2022; conditions: ref Salichs et al., Vet Rec. 2022, cited from earlier work; for Number of animals presenting AEs (%): Emesis or nausea: AEs classified A, B or O; for Emesis and nausea: Number of events: AEs related to the GI system
[2] = interindividual variability as % CV
[3] = parent, typical value at 9.9 kg

## NS(=O)(=O)c1ccc(N2N=C(C(F)(F)F)CC2c2ccc(F)cc2F)cc1 (stereo not drawn) [Enflicoxib]
[1]; [2]
  IIV of CL2/F (apparent clearance of irreversible biotransformation to pyrazol metabolite): 49%
  IIV of Lag Time (Tlag): 68%
  IIV of V/F (apparent volume of distribution in the central compartment): 94%
  IIV of absorption rate (ka): 101%
[1]; log error model, % CV
  Residual variability: 34%
[1]; parent
  Absorption rate (ka), estimate: 0.220 hr – 1
  Lag Time (Tlag), estimate: 0.249 h
[1]; [3]
  CL1/F = θ5·(WGT/9.9)^0.75, θ5 estimate (apparent clearance to other elimination pathways): 0.193 L/h
  CL2/F = θ6·(WGT/9.9)^0.75, θ6 estimate (apparent clearance of irreversible biotransformation to pyrazol metabolite): 0.520 L/h
  V/F = θ4·(WGT/9.9)^1.0, θ4 estimate (apparent volume of distribution, central compartment): 6.59 L
Beagle dogs; 3 times the recommended dose (12 mg/kg) for 7 months
  Tolerability in overdose study: well-tolerated
Beagle dogs; 5 times the recommended dose (20 mg/kg) for 3 months
  Tolerability in overdose study: well-tolerated
Canine osteoarthritis; Enflicoxib 2 mg/kg group n=60
  Number of animals presenting AEs (%): Emesis or nausea: 3 (5.0)
  Emesis and nausea: Number of events: 3
  Diarrhoea / pasty stools: Duration range: 2 to 8 days
  Diarrhoea / pasty stools: Mean duration: 5.6 days
  Diarrhoea / pasty stools: Number of events: 3
  Diarrhoea / pasty stools: Treatment needed: 1
  Emesis and nausea: Mean duration: 3 days
  Emesis and nausea: Treatment needed: 0
  Number of animals presenting AEs (%): Abdominal pain: 0
  Number of animals presenting AEs (%): Acute renal failure: 0
  Number of animals presenting AEs (%): Apathy: 1 (1.7)
  Number of animals presenting AEs (%): Constipation: 0
  Number of animals presenting AEs (%): Diarrhoea or pasty stools: 4 (6.7)
  Number of animals presenting AEs (%): Increased salivation: 0
  Number of animals presenting AEs (%): Polydipsia: 0
  Number of animals presenting AEs (%): Total: 6 (10%)
  Number of animals presenting AEs (%): Weight loss: 1 (1.7)
Canine osteoarthritis; Enflicoxib 2 mg/kg group n=60, upper end one animal
  Emesis and nausea: Duration range: 1 to 6 days
Canine osteoarthritis; Enflicoxib 4 mg/kg group n=61
  Number of animals presenting AEs (%): Emesis or nausea: 7 (11.5)
  Emesis and nausea: Number of events: 9
  Diarrhoea / pasty stools: Duration range: 1 to 4 days
  Diarrhoea / pasty stools: Mean duration: 3 days
  Diarrhoea / pasty stools: Number of events: 7
  Diarrhoea / pasty stools: Treatment needed: 3
  Emesis and nausea: Duration range: 1 to 3 days
  Emesis and nausea: Mean duration: 1.4 days
  Emesis and nausea: Treatment needed: 2
  Number of animals presenting AEs (%): Abdominal pain: 0
  Number of animals presenting AEs (%): Acute renal failure: 0
  Number of animals presenting AEs (%): Apathy: 2 (3.3)
  Number of animals presenting AEs (%): Constipation: 0
  Number of animals presenting AEs (%): Diarrhoea or pasty stools: 5 (8.2)
  Number of animals presenting AEs (%): Increased salivation: 1 (1.6)
  Number of animals presenting AEs (%): Polydipsia: 1 (1.6)
  Number of animals presenting AEs (%): Total: 12 (19.7)
  Number of animals presenting AEs (%): Weight loss: 0
